The values that follow come from US8809372B2, “Pyridine derivatives” (Endo Pharmaceuticals, Inc., priority 2011, dated 2014).

For test [1], the target named is T1, rat CYP17 (rat testicular microsomes) (Rattus norvegicus, UniProt P11715).
T1 construct: Rat testis tissue was collected and disrupted with 30 strokes of a glass homogenizer; from tissue; host or cells: rat testis (microsomes)
T1 sequence (P11715 1-507): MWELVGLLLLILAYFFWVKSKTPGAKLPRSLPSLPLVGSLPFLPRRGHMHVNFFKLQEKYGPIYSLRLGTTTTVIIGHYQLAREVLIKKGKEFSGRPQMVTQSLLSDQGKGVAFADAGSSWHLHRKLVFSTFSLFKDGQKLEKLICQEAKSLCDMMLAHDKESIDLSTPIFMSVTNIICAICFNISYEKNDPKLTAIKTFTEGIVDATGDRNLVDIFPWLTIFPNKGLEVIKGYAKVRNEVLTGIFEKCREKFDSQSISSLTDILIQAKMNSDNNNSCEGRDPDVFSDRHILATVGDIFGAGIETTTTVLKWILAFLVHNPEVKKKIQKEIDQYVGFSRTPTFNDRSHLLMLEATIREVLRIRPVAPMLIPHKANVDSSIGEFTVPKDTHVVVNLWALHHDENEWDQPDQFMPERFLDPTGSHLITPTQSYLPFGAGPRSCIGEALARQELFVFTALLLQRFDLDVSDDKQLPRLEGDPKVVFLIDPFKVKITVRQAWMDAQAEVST
In words: CYP17 inhibition assay in rat testicular microsomes. Type of test: biochemical. How it is done:
CYP17 Inhibition Assay in Rat Testicular Microsomes (Rat CYP17) or Yeast Microsome Overexpressing Human CYP17
1. NADPH (Sigma): A working stock was prepared by adding 25 μL of 6.5 mM NADPH in each tube. The final concentration of NADPH used in the assay was 325 μM.
2. Potassium Phosphate Buffer: One molar (1M) solutions of K2HPO4 and KH2PO4 were prepared. Eight mL of the 1 M KH2PO4 and 1.98 mL of the 1 M K2HPO4 were combined and the pH was adjusted to 7.4.
3. ^3H3-17α-hydroxypregnenolone (American Radiolabeled Chemicals, Inc., stock 1 μCi/μL): A 1:1 dilution of ^3H3-17α-hydroxypregnenolone in ethanol was prepared by combining 100 μL ^3H3-17α-hydroxypregnenolone+100 μL ethanol for one complete 96 well plate. For the reaction, 2 μL of the diluted ^3H3-17α-hydroxypregnenolone was added in each tube, i.e., 1 μCi/reaction. 4. Microsome Isolation Buffer: The microsome isolation buffer was prepared by combining 250 mM Sucrose, 5 mM EDTA, 10 mM Tris HCl, 4 mM DTT, and adjusting to pH 7.4. 5. TEG Buffer: The TEG buffer was prepared by combining 50 mM Tris HCl, 1 mM EDTA, and 20% Glycerol. 6. Rat Testicular Microsomes: Rat testis tissue was collected and disrupted with 30 strokes of a glass homogenizer on ice with 250 μL of microsome isolation buffer, followed by centrifugation at 10,000 g for 10 minutes at 4° C. The supernatant was collected and centrifuged at 100,000 g for 45 minutes at 4° C. The pellet was dissolved in TEG Buffer and the protein was quantified. The homogenized microsome samples were then frozen at −80° C. • 7. Yeast Microsomes which overexpress the human CYP17 enzyme were obtained from Premas Biotech, India.
Potassium phosphate buffer (470 μL) was prepared as described above and was added to each well of a deep well plate. The test compound was diluted using a TECAN liquid handler and 5 μL of diluted compound was transferred to each well (96 deep well/1 mL). A solution (25 μL) of 6.5 mM NADPH was added (final concentration of 325 μM in the assay). ^3H3-17α-hydroxypregnenolone (2 μL of the working stock) was added to each tube. The plates were then pre-incubated for 15 minutes at 37° C. Following the pre-incubation, either 5 μL rat testicular microsomes (150-160 μg) or 5 μL of yeast microsomes expressing human CYP17 (1.7 pmol), was added. Incubation was at 37° C. for 60 minutes in the presence of oxygen. The plates were then placed in ice and chloroform (500 μL) was added, mixed well and incubated at 4° C. for 20 minutes. The plates were then centrifuged at 1000 rpm for 15 minutes at 4° C.
A portion (300 μL) of the aqueous solution was collected and mixed with a 5% aqueous suspension of activated charcoal (300 μL). The plates were then incubated at 4° C. for 30 minutes, after which the plates were centrifuged at 1000 rpm for 15 minutes at 4° C. From this, 125 μL of the aqueous solution was collected and plated into a 96 well plate. Microscint™ 40 [125 μL, Perkin-Elmer; containing a mixture of a polymer based on alkylphenolethoxylate (20-40%), diethanolamine-phosphoric acid ester ammonium salt (10-20%), sodium dioctyl sulphosuccinate (2.5-10%), triethyl phosphate (2.5-10%), 3,6-dimethyl-4-octyne-3,6-diol (≦2.5%), a polymer based on nonylphenolethoxylate (≦2.5%), diisopropyl naphthalene isomers (40-60%), 2,5-diphenyloxazole (≦2.5%), and 9,10-dimethylanthracene] was added and mixed well. After 30 minutes of incubation, the samples were analyzed with a MicroBeta® Trilux microplate liquid scintillation counter and luminometer (Perkin-Elmer).

The target of test [2] is T2, human CYP17 in H295R adrenocortical carcinoma cells (Homo sapiens, UniProt P05093).
T2 construct: H295R Adrenocortical carcinoma cells [NCI-H295A, ATCC Number CRL-2128, American Type Culture Collection; host or cells: H295R adrenocortical carcinoma cells
T2 sequence (P05093 1-508): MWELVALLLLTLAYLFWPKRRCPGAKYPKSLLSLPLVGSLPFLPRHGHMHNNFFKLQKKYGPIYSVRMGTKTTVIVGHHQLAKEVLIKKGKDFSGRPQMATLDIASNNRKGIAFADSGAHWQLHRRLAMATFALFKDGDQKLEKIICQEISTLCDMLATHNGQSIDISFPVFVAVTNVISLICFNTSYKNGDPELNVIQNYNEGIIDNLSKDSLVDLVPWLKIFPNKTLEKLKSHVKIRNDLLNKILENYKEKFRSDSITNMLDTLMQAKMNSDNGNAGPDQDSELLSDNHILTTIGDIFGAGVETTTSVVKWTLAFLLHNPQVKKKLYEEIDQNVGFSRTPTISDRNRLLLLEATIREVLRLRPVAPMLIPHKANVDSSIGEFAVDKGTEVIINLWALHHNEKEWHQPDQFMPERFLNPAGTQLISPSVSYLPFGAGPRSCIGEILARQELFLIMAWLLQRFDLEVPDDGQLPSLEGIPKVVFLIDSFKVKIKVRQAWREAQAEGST
The test can be described thus: Cell-based human CYP17 inhibition assay, H295R cells. The note with it: 16 hours, read-out: CYP17 (human H295R adrenal cells). How it is done:
Cell-Based Human CYP17 Inhibition Assay
1. H295R Adrenocortical Carcinoma Cells and Growth Media: The media for the H295R Adrenocortical carcinoma cells [NCI-H295A, ATCC Number CRL-2128, American Type Culture Collection, Manassas, Va., US] (500 mL) was a DMEM:F12 Mix 1:1 with 5% (2 mL) BD Nu Serum; 1% (5 mL) ITS+Premix [BD Biosciences] and 1% Penstrep. 2. LNCap-CYP17 Cells and Growth Media: Full length hCYP17a1 gene (NCBI Reference Sequence: NM_000102.3) was cloned in pcDNA3.1(+) vector between HindIII and XhoI site. The pcDNA3.1(+) vector contains the Neomycin resistance gene and was used for selection of stable cell line. The hCYP17a1 containing pcDNA3.1(+) was transfected into LNCap cells to create the LNCap-CYP17 cell line. The media for the LNCaP-CYP17 cells was RPMI 1640, 10% FBS, 1% PenStrep, Geneticin 400 μg/mL.
The H295R cells or LNCaP-hCYP17 cells were subcultured and 30,000 cells per well were seeded in a poly-d lysine plate and incubated overnight at 37° C. The next day the media was removed and 200 μL of fresh media with ^3H3-17α-hydroxy-pregnenolone (1:1000) was added. 50 μL of serially diluted compounds from a 5× plate (5 times the final desired concentration) was added. The working concentration range for active, new compounds started from a high concentration of 10 μM with 3-fold serial dilutions generating up to 10 concentrations. The serial dilution in the 100× plate (in DMSO) and the stamping of a 5× plate (in media) from the 100× plate were carried out using a TECAN liquid handling device.
The plates were incubated overnight (16 hours) at 37° C. After 16 hours, the media was removed (approximately 220 μL) and an equal amount of chloroform was added, mixed and incubated for 30 minutes at 4 degrees. The plate was centrifuged at 4000 rpm for 15 minutes at 4° C., following which the top aqueous layer was carefully removed and added into a new deep well plate. An equal volume of activated 5% charcoal was added, mixed and incubated for 30 minutes at 4° C. The plate was then centrifuged at 4000 rpm for 15 minutes at 4° C. and the top layer carefully separated, avoiding any charcoal contamination, and placed in a white, clear bottom plate (plate cat #3610, Corning Life Sciences). An equal volume of Microscint™ 40 was added and mixed well. Following the incubation for 30 minutes, readings for the radiotracer were taken using a Microbeta® trilux.

For `CC(O)(c1ccncc1)c1ccc(-c2ccc(F)cc2)cn1` (stereo not drawn) [Example 5, 1-(5-(4-fluorophenyl)-pyridin-2-yl)-1-(pyridin-4-yl)ethanol], the figures for the IC50 in test [1] and in test [2] were under 50 nM and 201 to 10000 nM, respectively.

Regarding `CC(O)(c1ccncc1)c1cnc(-c2ccc(F)cc2F)s1` (stereo not drawn) [Example 27, 1-[2-(2,4-Difluoro-phenyl)-thiazol-5-yl]-1-pyridin-4-yl-ethanol], the IC50 in test [1] and in test [2] was under 50 nM each time.

Turning to `CC(O)(c1ccncc1)c1ncc(-c2ccc(F)cc2)s1` (single isomer, unassigned; (+)) [Example 55, (+)-1-(5-(4-fluorophenyl)thiazol-2-yl)-1-(pyridin-4-yl)ethanol], the results for the IC50 in test [1] and in test [2] were under 50 nM and 50 to 200 nM, respectively.

In the case of `Cn1cc(-c2ncc(C(C)(O)c3ccncc3)o2)ccc1=O` (stereo not drawn) [Example 60, 5-(5-(1-hydroxy-1-(pyridin-4-yl)-ethyl)oxazol-2-yl)-1-methylpyridin-2(1H)-one], the IC50 in test [1] and in test [2] was 201 to 10000 nM in each case.

Turning to `CC(O)(c1ccncc1)c1cc(-c2ccc(F)cc2)n[nH]1` (stereo not drawn) [Example 49, 1-(3-(4-fluorophenyl)-1H-pyrazol-5-yl)-1-(pyridin-4-yl)ethanol], the results for the IC50 in test [1] and in test [2] were under 50 nM and 201 to 10000 nM, respectively.

As for `CC(N)(c1ccncc1)c1cnc(-c2ccc(F)cc2)s1` (stereo not drawn) [Example 68, 1-(2-(4-Fluorophenyl)thiazol-5-yl)-1-(pyridin-4-yl)ethanamine], the IC50 in test [1] is under 50 nM; in test [2], 50 to 200 nM.

`CC(C)C(O)(c1ccncc1)c1cnc(-c2ccc(F)cc2)s1` (stereo not drawn) [Example 33, 1-[2-(4-Fluoro-phenyl)-thiazol-5-yl]-2-methyl-1-pyridin-4-yl-propan-1-ol]: the IC50 in test [1] and in test [2] was under 50 nM each time.

As for `CC(O)(c1ccncc1)c1cnc(-c2ccc(C(F)(F)F)c(Cl)c2)s1` (stereo not drawn) [Example 41, 1-(2-(3-chloro-4-(trifluoromethyl)phenyl)thiazol-5-yl)-1-(pyridin-4-yl)ethanol], the IC50 in test [1] and in test [2] was under 50 nM throughout.

Turning to `CC(O)(c1ccncc1)c1cnc(-c2ccc(Cl)c(C(F)(F)F)c2)s1` (stereo not drawn) [Example 39, 1-(2-(4-chloro-3-(trifluoromethyl)phenyl)thiazol-5-yl)-1-(pyridin-4-yl)ethanol], the IC50 in test [1] is under 50 nM; in test [2] it was 50 to 200 nM.

On to `CC(O)(c1ccncc1)c1cnc(-c2ccc(F)c(Cl)c2)s1` (stereo not drawn) [Example 46, 1-(2-(3-chloro-4-fluorophenyl)thiazol-5-yl)-1-(pyridin-4-yl)ethanol], for which the IC50 in test [1] and in test [2] was under 50 nM in each case.

Regarding `CC(O)(c1ccncc1)c1nc(-c2ccc(F)cc2)no1` (single isomer, unassigned; (-)) [Example 35, (−)-1-(3-(4-fluorophenyl)-1,2,4-oxadiazol-5-yl)-1-(pyridin-4-yl)ethanol], the IC50 in test [1] is under 50 nM; in test [2], 201 to 10000 nM.

Regarding `CC(O)(c1ccncc1)c1ccc(-c2ccc(C#N)cc2)cn1` (stereo not drawn) [Example 10, 4-(6-(1-hydroxy-1-(pyridin-4-yl)-ethyl)pyridin-3-yl)-benzonitrile], the values for the IC50 in test [1] and in test [2] were under 50 nM and 201 to 10000 nM, respectively.

For `CC(O)(c1ccncc1)c1cnc(-c2ccc(C#N)cc2)s1` (stereo not drawn) [Example 56, 4-(5-(1-hydroxy-1-(pyridin-4-yl)ethyl)thiazol-2-yl)benzonitrile], the values for the IC50 in test [1] and in test [2] were under 50 nM and 50 to 200 nM, respectively.

Regarding `CC(O)(c1ccncc1)c1cnc(-c2ccc(Cl)c(Cl)c2)s1` (stereo not drawn) [Example 43, 1-(2-(3,4-dichlorophenyl)thiazol-5-yl)-1-(pyridin-4-yl)ethanol], the IC50 in test [1] and in test [2] was under 50 nM in each case.

Regarding `CC(O)(c1ccncc1)c1cc(-c2ccc(F)cc2)on1` (stereo not drawn) [Example 50, 1-(5-(4-fluorophenyl)isoxazol-3-yl)-1-(pyridin-4-yl)ethanol], the IC50 was under 50 nM in test [1] and 50 to 200 nM in test [2].
